We go through 16 compounds from patent US20060234909A1, “Compositions and methods for increasing drug efficiency” (priority 2003, published 2006).

Data set [1] in a line: Serum stability in RPMI1640 medium containing 10% fetal bovine serum. Type of data set: in vitro ADME. Here is the method:
The stability of conjugates was measured in RPMI1640 cell culture medium containing 10% fetal bovine serum. The serum-containing medium was pre-warmed at 37° C. for 3 min prior to addition of test articles. Test articles, prepared in DMSO as 5 mM stocks, were added to the cell culture media to a final concentration of 10 μM. Aliquots ([…]) were withdrawn in triplicate at 0, 4, 8, 24 and 72 hours and combined with the same volume of ice-cold acetonitrile to terminate the reaction. The mixture was centrifuged at 2,000×g for 10 minutes. One part of the supernatant was mixed with four parts of deionized water to bring down the percentage of organic solvent. The diluted samples were then assayed by LC/MS for the test article. The natural log of the percent remaining was plotted versus time. A linear fit was used to determine the rate constant. The fit was truncated after the percent of remaining test article was less than 10%. The elimination half-lives associated with the disappearance of test articles were determined to compare their relative stability. The assays were carried out by Absorption Systems (Exton, Pa.).

In data set [2] the test system is Normal human foreskin fibroblasts (HFF). Conditions: read-out: HFF (EC50 Ave) ML; HFF, ML (monolayer).
The target of data set [3] is Akt (Homo sapiens, UniProt P31749). As to the kind of experiment: Akt kinase assay (PKLight ATP utilization, substrate phosphorylation as % of parent peptide). Type of data set: biochemical. More on the design: purchased Upstate (Charlottesville, Va.) 14-276. The method, then:
Another test may involve monitoring the consumption of ATP. For example, ATP concentrations at time 0 or after 4 hour incubation may be monitored by luciferase reaction (PKLight kit obtained from Cambrex Corporation, One Meadowlands Plaza, East Rutherford, N.J. 07073), which generate a luminescence readout in the presence of ATP. Assays are initiated by mixing a kinase and a peptide in the presence of 40 μM ATP. After 4 hour of incubation at 30° C., PKLight reagent is added and mixed well, and luminescence readout measured. The rate of peptide phosphorylation is then directly related to the rate of decrease in the observed luminescence. Based on the first test, linkers of appropriate lengths and peptides with an effective amount of kinase activity which may be expected to be retained in the drug conjugate may be found.
Human Src (#14-326) and Akt (#14-276) kinases were purchased from Upstate (Charlottesville, Va.). Kinase reactions were carried out in 50 μl kinase reaction cocktail (25 mM Tris-HCl, pH 7.5, 5 μM β-glycerophosphate, 2 mM DTT, 0.1 mM Na3VO4, 10 mM MgCl2, 1 mg/ml BSA, […], 0.5 to 1.0 units enzyme). Substrates (peptide or drug-peptide conjugate in […]) were added (25, 50 and 100 μM) and the reaction was incubated for 2-5 hours at 30° C. PKLight reagent (23 μl) (Cambrex BioSciences, Rockland, Me.) was mixed with […] of the above kinase reaction and ATP utilization relative to no substrate and no ATP controls was determined by measuring luminescence with a SpectraMax Gemini EM plate reader (Molecular Devices, Sunnyvale, Calif.). Peptide substrates for Src and Akt have been described. For examples, see Lou et al. Letters in Peptide Science, 2, 289-296 (1995); Lou et al. Bioorganic & Medicinal Chemistry, 4, 677-682 (1996); Alessi et al. FEBS Letters, 399, 333-338 (1996). Substrate phosphorylation potential was determined from the linear portion of the substrate concentration dose response as a percentage of the activity observed with the parent peptide used for drug conjugation.

Data set [4] relates to HT-29 colorectal carcinoma. The experiment in a line: Cytotoxicity assay (monolayer), HT-29.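 Also: monolayer cultures tested in triplicate, compound exposure for three days against DMSO vehicle controls, EC50 fitted from dose-response curves and averaged across all tests and lots.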 In kind it is cell-based. The following applies: HT29, ML (monolayer); read-out: HT29 (EC50 Ave) ML.
In data set [5] the test system is HUVEC. The experiment in a line: Cytotoxicity assay (monolayer), HUVEC. In kind it is cell-based. The following applies: ML (monolayer), read-out: HUVEC (EC50 Ave) ML.
Data set [6] relates to MCF-7 breast carcinoma. As to the kind of experiment: Cytotoxicity assay (monolayer), MCF-7.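 Also: cells treated 72 h with 6-8 compound doses versus DMSO vehicle controls, EC50 fitted by 4-parameter dose-response curves, averaged across all tests and lots.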 Type of data set: cell-based. The following applies: MCF7, ML (monolayer); read-out: MCF7 (EC50 Ave) ML.
Data set [7] deals with tubulin. As to the kind of experiment: Fluorescence-based tubulin polymerization assay (MPA; enhancement for paclitaxel, inhibition for vinblastine). Type of data set: biochemical. The essentials:
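Tubulin polymerisation was followed by fluorescence (ex 360/em 405 nm) with 1 mg/ml BSA in all assays. For paclitaxel conjugates, glycerol was omitted. Parent drugs and conjugates were tested at 0.75, 1.5, 3 and 10 micromolar final, and values come from the linear range of the dose responses.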

For data set [8], the system named is MCF-7 cells. The following applies: read-out: MCF7 (EC50 Ave) SA; MCF7, SA (soft agar).
Data set [9] concerns HT-29 cells. The following applies: read-out: HT29 (EC50 Ave) SA; HT29, SA (soft agar).
The target of data set [10] is T1, Human Src (Homo sapiens, UniProt P12931).
T1 construct: purchased Upstate (Charlottesville, Va.) 14-326
The experiment in a line: Src kinase assay (PKLight ATP utilization, substrate phosphorylation as % of parent peptide). In kind it is biochemical. The essentials:
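Recombinant human Src or Akt phosphorylated peptide or drug–peptide conjugate substrates (25, 50, 100 μM) at 30° C for 2–5 hours, in Tris-HCl pH 7.5 buffer with MgCl2 and ATP. ATP use was read by luciferase luminescence against no-substrate and no-ATP controls. Phosphorylation was taken from the linear range and expressed as % of the parent peptide.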

Primed or numbered codes have the meaning given here. * marks the point of attachment. 10Ca = carbamate linkage conjugating the peptide-PEG to paclitaxel at C10; 10Ca‑PXL = paclitaxel conjugated at C10 via a carbamate; 3Am‑VBL = vinblastine (VBL) conjugate; PEG(13)″ = PEG(13) linker; PEG(11) = PEG(11) linker; 3Am = not defined here; Cbz = O=C(OCc1ccccc1)*; PEG(13) = PEG13 linker; Piv = CC(C)(C)C(=O)*; OBn = c1ccc(CO*)cc1; VBL = vinblastine; PXL = paclitaxel

Chain of Akt (P31749 whole entry): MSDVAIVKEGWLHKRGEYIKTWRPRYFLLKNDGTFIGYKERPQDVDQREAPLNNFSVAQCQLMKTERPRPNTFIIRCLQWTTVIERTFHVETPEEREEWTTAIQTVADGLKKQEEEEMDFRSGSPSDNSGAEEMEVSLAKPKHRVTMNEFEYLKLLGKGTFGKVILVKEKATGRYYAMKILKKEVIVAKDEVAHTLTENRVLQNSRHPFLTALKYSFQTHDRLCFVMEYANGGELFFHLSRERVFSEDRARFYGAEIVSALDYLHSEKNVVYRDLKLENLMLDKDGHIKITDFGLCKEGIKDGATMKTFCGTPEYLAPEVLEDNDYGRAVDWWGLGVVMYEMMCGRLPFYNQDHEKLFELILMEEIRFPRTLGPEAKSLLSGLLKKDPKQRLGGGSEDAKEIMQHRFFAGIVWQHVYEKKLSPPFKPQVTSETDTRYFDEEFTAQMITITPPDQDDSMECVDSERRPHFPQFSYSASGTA

The amount remaining is the share of the starting amount still present when the sample was taken. As for `CC(=O)O[C@H]1C(=O)[C@@]2(C)[C@H]([C@H](OC(=O)c3ccccc3)[C@]3(O)C[C@H](OC(=O)[C@H](O)[C@@H](NC(=O)c4ccccc4)c4ccccc4)C(C)=C1C3(C)C)[C@]1(OC(C)=O)CO[C@@H]1C[C@@H]2O` [Paclitaxel, reference compound], in data set [1] (0 hr), the “Relative Percent Remaining at 0 hr” value is given as 100%. The share remaining at 4 h, 10 μM in [1] (bovine, 4 hr, read-out: Relative Percent Remaining at 4 hr) came out at 73%. Further, the share remaining at 8 h, 10 μM in data set [1] (bovine, 8 hr, read-out: Relative Percent Remaining at 8 hr) came out at 59%. The fraction remaining at 24 h, 10 μM in data set [1] (bovine, 24 hr, read-out: Relative Percent Remaining at 24 hr) amounted to 28%. Also, the fraction remaining at 72 h, 10 μM in [1] (bovine, 72 hr, read-out: Relative Percent Remaining at 72 hr) is below 3%.
As a reminder, the EC50 is the concentration giving half of the maximal effect. “Ac-GRPRTSSFAEG-3Am-VBL (Ac-GRPRTSSFAEG-{3Am-VBL}; reading uncertain; also: TFA salt, printed as Ac-GRPRTSSFAEG-3Am-VBL)”: the EC50 in [2] was 20 to 100 nM; in data set [4], 20 to 100 nM; in data set [5], below 20 nM; in [6], 20 to 100 nM. Besides, the “Ave. Akt Kinase Act.” value in [3] is “C (C>40)”. In data set [7], the “Ave. MPA Act.” value is recorded as “C (C>80)”.
As to “Ac-RPRTSSF-PEG(11)-3Am-VBL (N-acetyl; PEG(11) linker; vinblastine conjugate)”, the EC50 in data set [2] was 20 to 100 nM; in [4] it was 20 to 100 nM; in data set [5], above 100 nM; in data set [6], 20 to 100 nM. Moreover, in data set [3], the “Ave. Akt Kinase Act.” value was “C (C>40)”. Also, in [7], the “Ave. MPA Act.” value is recorded as “C (C>80)”.
As to “Ac-RSRTSSF-PEG(13)-10Ca-PXL (N-acetyl; PEG(13) linker; paclitaxel conjugate)”, in data set [3], the “Ave. Akt Kinase Act.” value was “C (C>40)”. The “Ave. MPA Act.” value in [7] was “C (C>80)”.
Consider “Ac-YIYGSFR-PEG(11)-3Am-VBL (N-acetyl; PEG(11) linker; vinblastine conjugate)”, for which the EC50 was above 100 nM in data set [2]; 20 to 100 nM in data set [8]; 20 to 100 nM in data set [4]; above 100 nM in data set [5]; above 100 nM in data set [9]; 20 to 100 nM in data set [6]. The “Ave. MPA Act.” value in data set [7] is given as “B (B=50-80)”. Moreover, in [10], the “Average src kinase activity” value is “C (C>40)”.
BOC-E(Bzl)YIFGSFK(BOC)-PEG(11)-3Am-VBL: the EC50 in data set [2] is above 100 nM; in data set [8], below 20 nM; in [4], above 100 nM; in [5], above 100 nM; in data set [9] it was 20 to 100 nM; in data set [6], 20 to 100 nM. In addition, in data set [7], the “Ave. MPA Act.” value is “A (A<50)”. For the same compound, the “Average src kinase activity” value in data set [10] is reported as “A (A<20)”.
For the compound “BOC-EYIYGSFK(BOC)-PEG(11)-3Am-VBL (N-BOC; BOC side chain; PEG(11); vinblastine conjugate)”, the EC50 in data set [2], in [8], in data set [4], in [5], in data set [9] and in [6] was above 100 nM each time. Further, in data set [7], the “Ave. MPA Act.” value is listed as “C (C>80)”. The “Average src kinase activity” value in data set [10] is given as “B (B=20-40)”.
On to “BOC-YIYGSFR-PEG(11)-3Am-VBL (N-BOC; PEG(11) linker; vinblastine conjugate)”, for which the EC50 in data set [2], in data set [8], in data set [4], in data set [5], in data set [9] and in data set [6] was above 100 nM each time. In addition, the “Ave. MPA Act.” value in [7] is on record as “C (C>80)”. Besides, the “Average src kinase activity” value in data set [10] was “B (B=20-40)”.
For “CBz-E(Bzl)YIFGSFK-PEG(11)-3Am-VBL (CBz-Glu(Bzl) N-terminal; PEG(11); vinblastine conjugate)”, the EC50 in data set [2], in [8], in [4], in data set [5], in data set [9] and in [6] was above 100 nM in each case. Moreover, in data set [7], the “Ave. MPA Act.” value is given as “B (B=50-80)”. The “Average src kinase activity” value in data set [10] is recorded as “C (C>40)”.
Turning to “Pv-E(Bzl)YIYGSFK(CBz)-PEG(13)-10Ca-PXL (Piv-E(OBn)YIYGSFK(Cbz)-{PEG(13)″-10Ca-PXL}; also: TFA salt)”, the EC50 in data set [2] is above 100 nM; in [8] it was 20 to 100 nM; in [4], above 100 nM; in [5], above 100 nM; in data set [9] it was above 100 nM; in data set [6], above 100 nM. In addition, the “Ave. MPA Act.” value in data set [7] is “A (A<50)”. For the same compound, the “Average src kinase activity” value in [10] is “A (A<20)”.
Consider “Pv-E(DMAB)YIYGSFR-PEG(11)-3Am-VBL (EYIYGSFR)”, for which the EC50 is above 100 nM in data set [2]; 20 to 100 nM in data set [8]; above 100 nM in data set [4]; 20 to 100 nM in data set [5]; 20 to 100 nM in data set [9]; 20 to 100 nM in data set [6]. Moreover, in data set [7], the “Ave. MPA Act.” value was “B (B=50-80)”. In addition, the “Average src kinase activity” value in [10] was “A (A<20)”.
Take “Pv-EYIYGSFR-PEG(13)-10Ca-PXL (Piv-EYIYGSFR-{PEG(13)-10Ca‑PXL})”: the EC50 in data set [2], in data set [8], in [4], in [5], in data set [9] and in data set [6] was above 100 nM in each case. Besides, the “Ave. MPA Act.” value in data set [7] is recorded as “B (B=50-80)”. In addition, the “Average src kinase activity” value in data set [10] is “B (B=20-40)”.
“Pv-RSRKESY-PEG(13)-10Ca-PXL (Piv-RSRKESY-{PEG(13)-10Ca‑PXL}; also: 2 TFA salt)”: in data set [3], the “Ave. Akt Kinase Act.” value was “C (C>40)”. For the same compound, in data set [7], the “Ave. MPA Act.” value is listed as “C (C>80)”.
Take “Pv-RSRTSSFAEG-PEG(13)-10Ca-PXL (Piv-RSRTSSFAEG-{PEG(13)-10Ca‑PXL}; also: 2 TFA salt)”: in data set [3], the “Ave. Akt Kinase Act.” value is “C (C>40)”. Further, in data set [7], the “Ave. MPA Act.” value is “C (C>80)”.
For the compound “Pv-YIFGSFR-PEG(13)-10Ca-PXL (Piv-YIFGSFR-{PEG(13)″-10Ca‑PXL}; also: TFA salt)”, the EC50 in data set [2] was above 100 nM; in data set [8], 20 to 100 nM; in data set [4], above 100 nM; in [5], above 100 nM; in data set [9], above 100 nM; in data set [6], above 100 nM. Besides, in data set [7], the “Ave. MPA Act.” value is on record as “A (A<50)”. The “Average src kinase activity” value in data set [10] is given as “Zero”.
Consider “Pv-YIYGSFR-PEG(11)-3Am-VBL (Piv-YIYGSFR-{PEG(11)-3Am‑VBL})”, for which the EC50 in data set [2], in data set [8], in [4], in data set [5], in data set [9] and in [6] was above 100 nM each time. Also, the “Ave. MPA Act.” value in data set [7] is reported as “C (C>80)”. Moreover, the “Average src kinase activity” value in [10] was “B (B=20-40)”.
